This note sets out measurements from patent US20210317141A1, “OXOPYRIDO[1,2-A]PYRIMIDINE COMPOUNDS FOR THE TREATMENT AND PROPHYLAXIS OF BACTERIAL INFECTION” (Hoffmann-La Roche Inc., priority 2018, published 2021).

Data set [1] is described as follows: Lyophilisation solubility assay (LYSA). The format is physicochemical. The settings on record: aqueous buffer, thermodynamic from solid; 0.05 M phosphate buffer, pH 6.5; * = detection limit. On the procedure:
The solubility of compounds of present invention was assessed by LYSA assay. Samples were prepared in duplicate from 10 mM DMSO stock solutions (20 μL) diluted in 30 μL pure DMSO. After evaporation of DMSO with a centrifugal vacuum evaporator, the residue was dissolved in 0.05 M phosphate buffer (150 μL, pH 6.5), stirred for one hour and shook for two hours. After one night, the solution was filtered using a microtiter filter plate. Then the filtrate and its 1/10 dilution were analyzed by HPLC-UV. In addition, a four-point calibration curve was prepared from the 10 mM stock solutions and used for the solubility determination of the compounds.

For the next data set, the system named is E. coli (ATCC 25922). In words: Minimal Inhibitory Concentration (MIC) assay. The format is cell-based. The settings on record: Escherichia coli, ATCC25922; CAMHB, 20 hours at 35° C.; read-out: MIC (μg/mL) E. coli ATCC 25922. Here is the method: The in vitro potency of compounds to inhibit E. coli (ATCC 25922) growth was assessed by MIC (Minimal Inhibitory Concentration) assay. Samples were prepared from 10 mM DMSO stock solutions. After serial 2-fold dilution in DMSO in a master plate (Greiner, Cat No: 651201), 180 μL sterile distilled water was added to 20 μL each aliquot of the samples. Then […], diluted compounds were transferred into a new assay plate (Costar, 3599).
The growth medium […] Mueller Hinton Broth (CAMHB) was prepared by adding the 20 mg per liter CaCl2) and 20 mg per liter MgCl2 into the MHB medium (Jianglai Company, sterilized).
Vials of each of the test microorganisms were maintained frozen in the vapor phase of a liquid nitrogen freezer. Took out the bacteria E. coli ATCC 25922 (KWIKSTIK, 0335K) from liquid nitrogen freezer, thawed it in room temperature, and diluted the bacterial in the CAMHB medium to achieve a final inoculum of 5×10^5 CFU/mL. 90 μL CAMHB with bacteria was dispensed to the assay plate and pipetted 5 times.
Then the assay plates were incubated for 20 hours at 35° C. in ambient air. Following incubation, the MIC (μg/mL), the lowest concentration of drug that inhibits visible growth of the microorganism was read and recorded throw the microscope.

A short description of data set [2]: Cytotoxicity assay (HepG2, CellTiter-Blue). The class given is cell-based. The settings on record: human, HepG2 cells, 3 days treatment. On the procedure: The cytotoxicity of compounds of present invention was assessed by HepG2 assay. HepG2 cells (ATCC HB-8065™) were seeded into 96-well plates (1.2×10^4 cells per well) and treated with compounds for 3 days, cell viability was measured at day 3 post compound treatment using the CellTiter-Blue® Cell Viability Assay (Promega, Cat. No. G8082). 20 μL of Cell titer blue buffer were added to each well of the cells, incubated for 3 hours at 37° C., and the fluorescence value was measured by a plate reader (Molecular Device SpectraMax M2). The CC50 value of each compound is plotted with GraphPad Prism using four parameter logistic equation.
(Resazurin is reduced to fluorescent resorufin, in cell work by metabolically active cells.)

The test system of another data set is E. coli (BW25113). The data set can be described thus: 50% growth inhibitory concentration (IC50) determination assay, E. coli. The format is cell-based. The settings on record: Escherichia coli, growth inhibition, Iso-Sensitest broth, OD 600 nm over 16 h, 35±2° C., read-out: IC50 (μM) E. coli K12 BW25113. On the procedure:
(§1) The in vitro antimicrobial activity of the compounds against E. coli (BW25113, obtained from Coli Genetic Stock Center, #7636) and K. pneumoniae (ATCC10031) was determined according to the following procedure:
(§2) The assay used a 10-points Iso-Sensitest broth medium to measure quantitatively the in vitro activity of the compounds against E. coli BW25113 and K. pneumoniae ATCC 10031.
(§3) Stock compounds in DMSO were serially two-fold diluted (range from 50 to 0.097 μM final concentration) in 384 wells microtiter plates and inoculated with 49 μL the bacterial suspension in Iso-Sensitest broth medium to have a final cell concentration of ˜5×10^5 CFU/mL in a final volume/well of 50 μL/well. Microtiter plates were incubated at 35±2° C.
(§4) Bacterial cell growth was determined with the measurement of optical density at k=600 nm each 20 minutes over a time course of 16 h.
(§5) Growth inhibition was calculated during the logarithmic growth of the bacterial cells with determination of the concentration inhibiting 50% (IC50) of the growth.

For data set [3], the system named is K. pneumoniae (ATCC10031). The data set can be described thus: 50% growth inhibitory concentration (IC50) determination assay, K. pneumoniae. The class given is cell-based. The settings on record: Klebsiella pneumoniae, growth inhibition, Iso-Sensitest broth, OD 600 nm over 16 h, * = detection limit. Here is the method:
as §1, §2, §3, §4, §5

One may read the solubility (thermodynamic) as the concentration in solution at equilibrium with solid. A word on the CC50: it is the concentration giving 50% cytotoxicity. High values mean better tolerance by the cells, low ones harm at low concentration. For orientation: IC50 means the concentration that gives 50% inhibition.

Molecules are shown by their SMILES. Values after ≈ are worked out from the molar mass of the structure shown.

`CNc1cc(F)c(F)c2c1[nH]c1ncc(-c3cc(OC)c4ncc(C(=O)O)c(=O)n4c3)c(N(C)C)c12` [Example 1.03, 7-[4-(Dimethylamino)-5,6-difluoro-8-(methylamino)-9H-pyrido[2,3-b]indol-3-yl]-9-methoxy-4-oxo-pyrido[1,2-a]pyrimidine-3-carboxylic acid] had a thermodynamic solubility in data set [1] of 54 µg/mL (≈ 109 µM). The MIC in the data set with E. coli (ATCC 25922) turned out to be 0.682 µg/mL (≈ 1.38 µM). The CC50 at 3 days in data set [2] is more than 100000 nM. The IC50 in the data set with E. coli (BW25113) came to 2.71 µM; in data set [3] it was 0.114 µM.

`CNc1cc(F)c(F)c2c1[nH]c1ncc(-c3ccc4ncc(C(=O)O)c(=O)n4c3)c(N3CCOCC3)c12` [Example 1.10, 7-(5,6-Difluoro-8-(methylamino)-4-morpholino-9H-pyrido[2,3-b]indol-3-yl)-4-oxo-4H-pyrido[1,2-a]pyrimidine-3-carboxylic acid] came in with a thermodynamic solubility in data set [1] of 63 µg/mL (≈ 124 µM). Besides, in the data set with E. coli (ATCC 25922), the MIC turned out to be 0.017 µg/mL (≈ 0.0336 µM). For the same compound, the CC50 at 3 days in data set [2] was more than 100000 nM. Further, the 50% inhibitory concentration (IC50) in the data set on E. coli (BW25113) was 3.58 µM; in data set [3], not above 0.098 µM.

The compound `CNc1c(F)c(F)cc2c1[nH]c1ncc(-c3ccc4ncc(C(=O)O)c(=O)n4c3)c(N3CCOCC3)c12` [Example 1.13, 7-(6,7-Difluoro-8-(methylamino)-4-morpholino-9H-pyrido[2,3-b]indol-3-yl)-4-oxo-4H-pyrido[1,2-a]pyrimidine-3-carboxylic acid] registered a thermodynamic solubility in data set [1] of 162 µg/mL (≈ 320 µM). Besides, in the data set with E. coli (ATCC 25922), the MIC stood at 0.0909 µg/mL (≈ 0.179 µM). In data set [2], this compound gave a CC50 at 3 days of 80100 nM. Also, the figures for the IC50 (with E. coli (BW25113); in data set [3]) were 2.86 µM and not above 0.098 µM, respectively.

As to `CNc1cc(F)c(F)c2c1[nH]c1ncc(-c3ccc4ncc(C(=O)O)c(=O)n4c3)c(N(C)CCOC)c12` [Example 1.24, 7-(5,6-Difluoro-4-((2-methoxyethyl)(methyl)amino)-8-(methylamino)-9H-pyrido[2,3-b]indol-3-yl)-4-oxo-4H-pyrido[1,2-a]pyrimidine-3-carboxylic acid], the thermodynamic solubility in data set [1] was found to be 22 µg/mL (≈ 43.3 µM). In addition, it took 71000 nM to reach half-maximal cytotoxicity in data set [2] (CC50 at 3 days). Besides, the IC50 came to 2.23 µM in the data set on E. coli (BW25113) and 0.105 µM in data set [3].

`CNc1cc(F)cc2c1[nH]c1nc(Oc3cnc(C)nc3)nc(N3C[C@H]4C[C@@H]3C[C@H]4C)c12` [GP-6, reference compound] came in with a solubility (thermodynamic) in data set [1] of less than 1 µg/mL. In the data set on E. coli (ATCC 25922), the MIC was found to be 0.127 µg/mL (≈ 0.293 µM). Moreover, the CC50 at 3 days in data set [2] was determined as 5600 nM. Besides, the results for the IC50 (with E. coli (BW25113); in data set [3]) were 0.17 µM and not above 0.098 µM, respectively.
